Measured values from patent publication US12275731B2, “Azaindole inhibitors of wild-type and mutant forms of LRRK2” (DANA-FARBER CANCER INSTITUTE, INC., priority 2018, dated 2025).

Experiments:
Experiment in all cases: KinomeScan profiling
Type in all cases: binding
CDK4 = CDK4 (Homo sapiens, UniProt P11802); settings: CDK4, 1 μM; read-out: % control
Method in brief: (§1)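 First, compounds in DMSO are added at 1 μM to each of 468 kinase assays. Next, RLU signals are normalised between positive control (0%) and DMSO (100%). Finally, kinases under 35% are flagged active.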

DYRK2 = target: T1, DYRK2 (Homo sapiens, UniProt Q92630); settings: DYRK2, 1 μM; read-out: % control
T1 sequence (Q92630 1-601): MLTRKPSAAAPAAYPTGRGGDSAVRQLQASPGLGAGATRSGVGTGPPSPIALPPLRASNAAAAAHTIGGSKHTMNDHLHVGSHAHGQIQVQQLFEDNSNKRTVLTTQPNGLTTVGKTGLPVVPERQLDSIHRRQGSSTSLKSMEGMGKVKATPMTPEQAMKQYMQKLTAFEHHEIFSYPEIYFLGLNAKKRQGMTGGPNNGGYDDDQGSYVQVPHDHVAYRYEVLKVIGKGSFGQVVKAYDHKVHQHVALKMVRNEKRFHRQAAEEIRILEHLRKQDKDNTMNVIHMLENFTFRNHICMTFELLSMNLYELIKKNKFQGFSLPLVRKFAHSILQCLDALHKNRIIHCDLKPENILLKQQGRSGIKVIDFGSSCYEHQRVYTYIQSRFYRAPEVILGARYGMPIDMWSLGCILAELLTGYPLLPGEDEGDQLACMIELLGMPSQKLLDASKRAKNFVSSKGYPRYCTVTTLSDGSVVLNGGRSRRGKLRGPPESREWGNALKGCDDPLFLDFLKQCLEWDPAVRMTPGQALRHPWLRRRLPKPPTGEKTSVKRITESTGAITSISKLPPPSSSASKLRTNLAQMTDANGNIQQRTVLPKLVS
Method in brief: as §1

FLT3(K663Q) = target: T2, FLT3(K663Q) (Homo sapiens, UniProt P36888, K663Q); settings: read-out: % control
T2 sequence (P36888 27-993 K663Q): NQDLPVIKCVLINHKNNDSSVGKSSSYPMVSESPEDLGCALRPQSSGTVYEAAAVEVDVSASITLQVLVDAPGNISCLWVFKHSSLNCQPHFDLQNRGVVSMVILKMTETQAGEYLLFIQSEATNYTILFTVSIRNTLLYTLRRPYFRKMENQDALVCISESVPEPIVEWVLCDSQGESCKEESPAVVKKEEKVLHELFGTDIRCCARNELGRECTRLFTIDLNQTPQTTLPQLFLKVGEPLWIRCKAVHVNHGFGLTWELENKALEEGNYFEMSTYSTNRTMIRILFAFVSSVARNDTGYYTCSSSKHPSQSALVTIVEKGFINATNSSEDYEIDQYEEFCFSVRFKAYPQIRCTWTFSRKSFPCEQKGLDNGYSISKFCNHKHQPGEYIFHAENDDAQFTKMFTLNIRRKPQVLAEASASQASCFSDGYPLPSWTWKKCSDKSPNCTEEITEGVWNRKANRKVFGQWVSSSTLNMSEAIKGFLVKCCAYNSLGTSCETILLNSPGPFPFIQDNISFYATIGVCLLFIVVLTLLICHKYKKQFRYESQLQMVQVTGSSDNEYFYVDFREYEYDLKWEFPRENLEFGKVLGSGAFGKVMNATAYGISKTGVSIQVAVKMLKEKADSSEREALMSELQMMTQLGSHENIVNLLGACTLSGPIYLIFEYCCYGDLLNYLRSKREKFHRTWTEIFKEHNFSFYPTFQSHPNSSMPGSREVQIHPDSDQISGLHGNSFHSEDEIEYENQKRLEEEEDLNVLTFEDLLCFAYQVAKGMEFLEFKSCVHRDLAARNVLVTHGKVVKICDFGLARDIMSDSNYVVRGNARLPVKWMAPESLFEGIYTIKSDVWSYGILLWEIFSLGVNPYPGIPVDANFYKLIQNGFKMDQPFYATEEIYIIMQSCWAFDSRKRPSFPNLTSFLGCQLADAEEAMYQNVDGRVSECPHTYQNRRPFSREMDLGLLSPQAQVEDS
Method in brief: as §1

IKK-epsilon = target: T3, IKK-epsilon (Homo sapiens, UniProt Q14164); settings: read-out: % control
T3 construct: purchased KinomeScan®
T3 sequence (Q14164 1-716): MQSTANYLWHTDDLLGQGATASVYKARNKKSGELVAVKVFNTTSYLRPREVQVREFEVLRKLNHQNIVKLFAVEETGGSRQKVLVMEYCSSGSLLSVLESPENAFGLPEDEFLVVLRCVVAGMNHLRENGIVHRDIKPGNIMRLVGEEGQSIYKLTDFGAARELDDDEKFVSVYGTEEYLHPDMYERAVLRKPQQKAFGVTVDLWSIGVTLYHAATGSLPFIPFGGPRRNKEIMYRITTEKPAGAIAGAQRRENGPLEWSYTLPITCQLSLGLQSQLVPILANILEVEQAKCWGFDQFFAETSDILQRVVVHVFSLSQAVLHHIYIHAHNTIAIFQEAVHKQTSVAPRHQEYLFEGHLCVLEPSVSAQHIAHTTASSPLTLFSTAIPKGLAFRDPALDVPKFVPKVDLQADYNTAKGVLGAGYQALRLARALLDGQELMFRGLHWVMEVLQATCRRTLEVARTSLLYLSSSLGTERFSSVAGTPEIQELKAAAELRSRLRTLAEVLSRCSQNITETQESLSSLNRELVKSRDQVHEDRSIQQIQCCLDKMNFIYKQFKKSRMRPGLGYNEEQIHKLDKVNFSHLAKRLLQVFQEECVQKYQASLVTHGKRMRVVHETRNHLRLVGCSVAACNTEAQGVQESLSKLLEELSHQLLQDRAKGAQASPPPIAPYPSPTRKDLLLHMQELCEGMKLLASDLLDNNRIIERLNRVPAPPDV
Method in brief: as §1

PIK3CA(Q546K) = target: T4, PIK3CA(Q546K) (Homo sapiens, UniProt P42336, Q546K); settings: read-out: % control
T4 construct: purchased KinomeScan® (panel service)
Method in brief: as §1

RET(V804L) = RET(V804L) (Homo sapiens, UniProt P07949, V804L); settings: read-out: % control
Method in brief: as §1

ROCK1 = ROCK1 (Homo sapiens, UniProt Q13464); settings: ROCK1, 1 μM; read-out: % control
Method in brief: as §1

TRKB = TRKB (Homo sapiens, UniProt Q16620); settings: read-out: % control
Method in brief: as §1

T4 sequence (P42336 whole entry Q546K): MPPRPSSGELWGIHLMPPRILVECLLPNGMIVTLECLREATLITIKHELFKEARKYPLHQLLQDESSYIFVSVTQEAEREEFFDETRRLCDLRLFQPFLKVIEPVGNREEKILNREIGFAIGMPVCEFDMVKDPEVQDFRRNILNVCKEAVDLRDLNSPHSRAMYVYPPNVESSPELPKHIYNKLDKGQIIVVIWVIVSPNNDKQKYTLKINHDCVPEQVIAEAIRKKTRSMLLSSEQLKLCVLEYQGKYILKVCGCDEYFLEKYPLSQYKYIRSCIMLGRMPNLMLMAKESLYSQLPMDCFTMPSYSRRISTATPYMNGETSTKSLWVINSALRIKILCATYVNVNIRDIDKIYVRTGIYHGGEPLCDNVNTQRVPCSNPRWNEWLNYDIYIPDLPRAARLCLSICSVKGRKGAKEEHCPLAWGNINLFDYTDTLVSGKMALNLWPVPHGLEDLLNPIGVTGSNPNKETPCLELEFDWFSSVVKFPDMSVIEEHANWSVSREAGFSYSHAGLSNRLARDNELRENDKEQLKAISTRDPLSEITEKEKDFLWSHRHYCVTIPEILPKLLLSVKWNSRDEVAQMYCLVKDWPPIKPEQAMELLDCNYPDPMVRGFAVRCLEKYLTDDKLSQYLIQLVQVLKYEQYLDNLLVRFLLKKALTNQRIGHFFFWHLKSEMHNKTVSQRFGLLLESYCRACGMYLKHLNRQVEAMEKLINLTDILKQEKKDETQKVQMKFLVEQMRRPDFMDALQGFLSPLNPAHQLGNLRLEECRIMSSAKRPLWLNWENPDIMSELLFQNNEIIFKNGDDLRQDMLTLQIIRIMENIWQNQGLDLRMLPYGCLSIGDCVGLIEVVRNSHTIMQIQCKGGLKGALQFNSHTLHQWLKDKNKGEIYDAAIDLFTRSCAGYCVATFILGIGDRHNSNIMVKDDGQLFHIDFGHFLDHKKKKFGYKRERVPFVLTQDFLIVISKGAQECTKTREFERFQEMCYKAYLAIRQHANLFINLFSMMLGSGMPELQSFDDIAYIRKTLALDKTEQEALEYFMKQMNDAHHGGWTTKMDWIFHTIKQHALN
Chain of TRKB (Q16620 32-822): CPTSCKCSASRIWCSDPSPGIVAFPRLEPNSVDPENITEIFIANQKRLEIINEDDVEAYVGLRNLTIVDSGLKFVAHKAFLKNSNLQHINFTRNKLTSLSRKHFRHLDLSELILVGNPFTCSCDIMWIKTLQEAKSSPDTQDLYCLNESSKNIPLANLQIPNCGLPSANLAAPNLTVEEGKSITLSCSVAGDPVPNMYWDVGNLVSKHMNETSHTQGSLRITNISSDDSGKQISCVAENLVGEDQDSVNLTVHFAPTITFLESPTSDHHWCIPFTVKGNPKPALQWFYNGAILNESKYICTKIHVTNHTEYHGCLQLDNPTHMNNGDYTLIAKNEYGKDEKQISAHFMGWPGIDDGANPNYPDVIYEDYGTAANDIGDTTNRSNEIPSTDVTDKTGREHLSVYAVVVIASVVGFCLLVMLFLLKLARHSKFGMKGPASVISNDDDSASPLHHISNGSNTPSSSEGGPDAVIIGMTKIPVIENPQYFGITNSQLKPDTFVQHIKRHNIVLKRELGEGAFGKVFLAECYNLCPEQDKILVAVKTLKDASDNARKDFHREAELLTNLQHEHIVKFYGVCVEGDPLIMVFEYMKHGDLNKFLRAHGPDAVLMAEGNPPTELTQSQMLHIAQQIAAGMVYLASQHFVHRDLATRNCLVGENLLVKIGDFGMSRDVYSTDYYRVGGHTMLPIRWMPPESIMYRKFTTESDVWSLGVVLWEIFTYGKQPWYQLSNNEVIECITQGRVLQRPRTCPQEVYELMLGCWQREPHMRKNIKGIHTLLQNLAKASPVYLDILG
Chain of RET(V804L) (P07949 29-1114 V804L): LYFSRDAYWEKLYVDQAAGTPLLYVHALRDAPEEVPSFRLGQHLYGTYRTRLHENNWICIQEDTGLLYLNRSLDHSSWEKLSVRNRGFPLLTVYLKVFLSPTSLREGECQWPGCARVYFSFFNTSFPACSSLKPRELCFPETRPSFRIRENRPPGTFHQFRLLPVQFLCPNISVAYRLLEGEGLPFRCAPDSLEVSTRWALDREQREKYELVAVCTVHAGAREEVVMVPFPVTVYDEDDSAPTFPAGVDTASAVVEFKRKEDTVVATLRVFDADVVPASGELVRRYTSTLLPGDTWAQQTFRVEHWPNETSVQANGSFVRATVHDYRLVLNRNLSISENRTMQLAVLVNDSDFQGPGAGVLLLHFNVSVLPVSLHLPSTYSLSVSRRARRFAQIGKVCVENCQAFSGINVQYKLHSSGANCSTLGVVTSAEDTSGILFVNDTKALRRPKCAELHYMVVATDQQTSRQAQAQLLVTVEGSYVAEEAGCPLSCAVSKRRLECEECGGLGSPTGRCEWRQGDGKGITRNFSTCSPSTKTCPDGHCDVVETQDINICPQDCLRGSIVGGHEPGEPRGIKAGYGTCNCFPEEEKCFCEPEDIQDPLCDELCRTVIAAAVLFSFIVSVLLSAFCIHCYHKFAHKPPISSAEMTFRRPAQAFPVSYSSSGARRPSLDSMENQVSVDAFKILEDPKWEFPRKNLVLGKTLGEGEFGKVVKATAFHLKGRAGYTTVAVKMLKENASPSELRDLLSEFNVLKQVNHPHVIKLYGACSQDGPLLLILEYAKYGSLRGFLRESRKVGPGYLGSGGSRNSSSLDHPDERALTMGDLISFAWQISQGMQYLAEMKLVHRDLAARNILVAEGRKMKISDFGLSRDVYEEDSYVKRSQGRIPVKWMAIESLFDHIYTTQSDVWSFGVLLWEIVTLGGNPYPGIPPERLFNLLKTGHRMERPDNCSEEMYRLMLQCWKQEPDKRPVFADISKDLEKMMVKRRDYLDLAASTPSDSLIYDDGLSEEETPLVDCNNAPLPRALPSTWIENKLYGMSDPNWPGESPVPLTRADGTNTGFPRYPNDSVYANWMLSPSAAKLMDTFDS
Chain of ROCK1 (Q13464 whole entry): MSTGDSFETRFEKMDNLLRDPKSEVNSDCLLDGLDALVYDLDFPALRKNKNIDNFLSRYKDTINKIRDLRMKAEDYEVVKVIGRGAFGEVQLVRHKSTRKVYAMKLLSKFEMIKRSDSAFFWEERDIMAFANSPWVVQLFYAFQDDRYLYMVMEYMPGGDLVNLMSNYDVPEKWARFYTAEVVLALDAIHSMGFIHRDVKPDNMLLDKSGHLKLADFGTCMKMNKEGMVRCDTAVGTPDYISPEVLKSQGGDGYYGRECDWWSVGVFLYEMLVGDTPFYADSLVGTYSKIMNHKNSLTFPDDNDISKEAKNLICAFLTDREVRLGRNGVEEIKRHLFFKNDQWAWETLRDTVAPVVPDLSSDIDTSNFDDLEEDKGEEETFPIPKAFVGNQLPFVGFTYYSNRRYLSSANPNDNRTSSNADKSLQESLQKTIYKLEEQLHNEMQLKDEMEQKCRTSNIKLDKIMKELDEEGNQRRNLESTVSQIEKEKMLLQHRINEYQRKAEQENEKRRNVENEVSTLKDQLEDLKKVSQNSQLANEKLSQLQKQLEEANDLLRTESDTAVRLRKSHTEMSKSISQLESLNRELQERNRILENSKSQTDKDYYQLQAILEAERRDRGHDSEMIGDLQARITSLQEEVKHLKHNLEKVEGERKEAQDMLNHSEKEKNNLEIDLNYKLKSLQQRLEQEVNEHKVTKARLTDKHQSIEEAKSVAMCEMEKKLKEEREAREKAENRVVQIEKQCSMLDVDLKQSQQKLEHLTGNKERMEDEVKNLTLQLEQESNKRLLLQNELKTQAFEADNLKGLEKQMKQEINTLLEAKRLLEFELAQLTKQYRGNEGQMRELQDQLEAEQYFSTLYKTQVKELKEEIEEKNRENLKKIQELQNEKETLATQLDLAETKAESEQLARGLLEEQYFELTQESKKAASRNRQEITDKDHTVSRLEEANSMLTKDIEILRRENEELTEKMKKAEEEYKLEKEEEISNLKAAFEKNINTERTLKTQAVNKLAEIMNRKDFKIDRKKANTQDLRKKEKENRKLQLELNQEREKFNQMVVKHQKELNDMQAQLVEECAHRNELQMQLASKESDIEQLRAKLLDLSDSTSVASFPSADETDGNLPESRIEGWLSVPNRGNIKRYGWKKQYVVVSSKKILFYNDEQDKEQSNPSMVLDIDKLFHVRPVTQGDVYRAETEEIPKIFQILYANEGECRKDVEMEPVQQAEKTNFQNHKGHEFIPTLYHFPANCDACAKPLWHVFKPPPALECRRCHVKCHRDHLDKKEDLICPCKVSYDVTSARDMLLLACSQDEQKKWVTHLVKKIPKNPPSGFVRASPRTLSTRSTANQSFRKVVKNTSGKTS
Chain of CDK4 (P11802 whole entry): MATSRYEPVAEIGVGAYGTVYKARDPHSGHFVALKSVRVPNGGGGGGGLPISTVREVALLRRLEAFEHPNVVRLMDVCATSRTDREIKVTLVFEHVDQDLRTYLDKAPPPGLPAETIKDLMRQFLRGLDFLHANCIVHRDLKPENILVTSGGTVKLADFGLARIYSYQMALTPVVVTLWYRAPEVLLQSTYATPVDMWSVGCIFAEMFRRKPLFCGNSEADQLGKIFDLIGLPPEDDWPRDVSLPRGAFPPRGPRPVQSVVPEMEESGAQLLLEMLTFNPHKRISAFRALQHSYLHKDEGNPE

## CNc1c(-c2cnn([C@H]3CCN(C(C)=O)C[C@@H]3F)c2)cnc2[nH]cc(Cl)c12 [Compound 77, 1-((3S,4S)-4-(4-(3-chloro-4-(methylamino)-1H-pyrrolo[2,3-b]pyridin-5-yl)-1H-pyrazol-1-yl)-3-fluoropiperidin-1-yl)ethan-1-one]
CDK4
  remaining binding at 1 µM: 85%
DYRK2
  remaining binding at 1 µM: 49%
FLT3(K663Q)
  remaining binding at 1 µM: 15%
IKK-epsilon
  remaining binding at 1 µM: 64%
PIK3CA(Q546K)
  remaining binding at 1 µM: 100%
RET(V804L)
  remaining binding at 1 µM: 45%
ROCK1
  remaining binding at 1 µM: 20%
TRKB
  remaining binding at 1 µM: 23%

## O=C(c1ccc(-c2cnc3[nH]cc(Cl)c3c2NC2CCCC2)cc1)N1CCC(N2CCOCC2)CC1 [Compound 101, (4-(3-chloro-4-(cyclopentylamino)-1H-pyrrolo[2,3-b]pyridin-5-yl)phenyl)(4-morpholinopiperidin-1-yl)methanone]
CDK4
  remaining binding at 1 µM: 100%
DYRK2
  remaining binding at 1 µM: 100%
FLT3(K663Q)
  remaining binding at 1 µM: 28%
IKK-epsilon
  remaining binding at 1 µM: 99%
PIK3CA(Q546K)
  remaining binding at 1 µM: 93%
RET(V804L)
  remaining binding at 1 µM: 97%
ROCK1
  remaining binding at 1 µM: 63%
TRKB
  remaining binding at 1 µM: 100%

## CNc1c(-c2ccc(C(=O)N3CCC(N4CCOCC4)CC3)cc2)cnc2[nH]cc(Cl)c12 [Compound 96, (4-(3-chloro-4-(methylamino)-1H-pyrrolo[2,3-b]pyridin-5-yl)phenyl)(4-morpholinopiperidin-1-yl)methanone]
CDK4
  remaining binding at 1 µM: 98%
DYRK2
  remaining binding at 1 µM: 12%
FLT3(K663Q)
  remaining binding at 1 µM: 15%
IKK-epsilon
  remaining binding at 1 µM: 68%
PIK3CA(Q546K)
  remaining binding at 1 µM: 100%
RET(V804L)
  remaining binding at 1 µM: 59%
ROCK1
  remaining binding at 1 µM: 4.7%
TRKB
  remaining binding at 1 µM: 48%
